Entries after “also recorded” stand apart in the source; their conditions may differ. Marks after values point to notes of the source that are not given here.
Columns and labels:
Assay type in all cases: in vivo, human
[1] = system: overweight to obese males; assay: 21-day oral DEA study: fasting insulin and OGTT insulin; conditions: for AUC insulin: 180-minute OGTT, in µU·min/mL (unit assumed); for AUC insulin / Fasting insulin: D21 post-treatment, 21 daily oral doses of 1 mg/kg, mean
Source text: (§1) Seventeen subjects were recruited by sampling a large population at risk for T2D (according to convenience sample; a statistical method of drawing representative data) to measure the changes in glucose, lipid and insulin measurements after an OGTT after the subjects had been treated for 21 days.
(§2) The subjects were overweight to obese males with body mass indices (BMIs) ranging from 27.2 to 43.6 kg/m^2, glycated hemoglobin A1c (HbA1c) of 5.0-6.2% and insulin levels of 8.8-52 μU/mL. The study was conducted by Clinical Trials of Texas, Inc. in San Antonio, TX. The cohort represented a population at risk for the development of T2D. The study was restricted to male participants to control for the variability of insulin sensitivity associated with the menstrual cycle. The subjects received 21 daily oral doses (“q1d”) of 1 mg/kg DEA. An OGTT, in which 75 grams of glucose in a total volume of 300 mL was administered orally to subjects, was performed on Day 0 and again on Day 21 and glucose measurements performed at −30, −5 and 0 min, insulin measurements at −30 and 0 min, and both glucose measurements and insulin measurements at 30, 60, 90, 120 and 180 minutes, where “0 min” is the time at which the glucose solution was administered. The 180-minute time point was selected to gain an early insight into the possible signal of drug action. Blood lipid levels (triglycerides, cholesterol, HDL, non-cholesterol HDL and LDL) were measured before the onset of treatment on Day 0 and again on Day 21. The error of the assays was <5% [36].
(§3) The results of the various marker measurements at Day 0 and Day 21 were compared using both the paired Students T-test and the Wilcoxon signed rank test. The results of both calculations are provided; the p-value from the paired Student T-test first, followed by the p-value from the Wilcoxon signed rank test. Generalized Estimating Equations and bootstrapping were used to verify the results generated with other methods. Fasting glucose was calculated as the average of the −30, −5, and 0-minute measurements and fasting insulin was calculated as the average of the −30- and 0-minute measurements. Spearman's correlation coefficient was calculated for the relationship between A1c and pre-treatment fasting plasma glucose versus post-treatment fasting plasma glucose. Area under the curve (AUC) was calculated over the 180-minute time span of the OGTT. All analyses were performed using the open language engine R 3.4.4. Statistical significance was at the α=0.05 level.

[2] = system: overweight to obese males; assay: 21-day oral DEA study: fasting plasma glucose and OGTT glucose; conditions: for AUC Glucose: 180-minute OGTT, in mg·min/dL (unit assumed); for AUC Glucose / Fasting plasma glucose / Glucose 180 min: D21 post-treatment, 21 daily oral doses of 1 mg/kg, mean; for Glucose 180 min: OGTT
Source text: as §1, §2, §3
For measuring the effect of DEA on blood glucose, an assessment of fasting plasma glucose levels was relied upon, which is a measure that is commonly used as an indication that a subject may be diabetic. A level under 100 mg/dL is considered clinically normal while the range between 100 and 125 mg/dL is indicative of prediabetes. At the threshold of 100 mg/dL the human body begins to have a compromised insulin response to glucose shock. The OGTT was used, in which a standard dose of glucose was ingested by mouth, and blood samples were taken at specified time points after ingestion. Plasma blood glucose measurements were then obtained as a means of understanding the pharmacodynamic effects of DEA.

[3] = system: subject, with diet induced insulin resistance and diabetes; assay: Example 2: fasting blood lipids after buccal or gastric delivery of DEA; conditions: for TC, triglyceride, and Calc LDL levels and TC/HDL ratio: all tested dosages vs 0 mg/kg
Source text: Described in this example is an evaluation of the effects of alkyl azelates, such as DEA, on certain markers of insulin resistance and dyslipidemia, namely, blood plasma glucose, insulin levels and/or lipid levels, when administered either for buccal delivery or for gastric delivery in a subject, with diet induced insulin resistance and diabetes with a BMI of approximately 27.
Diethyl azelate was synthesized from azelaic acid and ethyl alcohol sing the standard acid-catalyzed esterification followed by fractional distillation to produce DEA to 99% purity as determined by chromatography-mass spectrometry (GC-MS). The 99% distilled DEA distillation product was administered in unformulated, unencapsulated, etc. form (i.e., “as is”) for buccal delivery as indicated below.
For gastric delivery, the 99% DEA distillation product was placed in a hard gelatin capsule, size 00 (PureCaps USA, Philmont, NY) and administered for gastric delivery by swallowing with a drink of water.
Fasting blood levels of cholesterol, high density lipoprotein (HDL) cholesterol, and triglycerides were measured using Lipid Panel PTS test strips and CardioChek P-A test system (Polymer Technology Systems, Inc., Indianapolis, IN) according to the manufacturer's instructions.

[4] = system: overweight to obese males; assay: 21-day oral DEA study: tolerability, adverse effects
Protocol: as §2

[5] = buccal delivery, 0.5, 1, 2, 4 mg/kg vs 0 mg/kg, FIG. 8, greatest lowering at 0.5 mg/kg

CCOC(=O)CCCCCCCC(=O)OCC [DEA, diethyl azelate]
AUC insulin ([1]; All (n = 17), D0 24963): 26834
AUC insulin ([1]; FPG <100 mg/dL (n = 8), D0 22215): 27461
AUC insulin ([1]; FPG >100 mg/dL (n = 9), D0 27405): 26275
AUC insulin ([1]; High A1c (n = 9), D0 27055): 25988
AUC insulin ([1]; Low A1c (n = 8), D0 22609): 27785
Fasting insulin ([1]; All (n = 17), D0 26.082): 25.894 μU/mL
Fasting insulin ([1]; FPG <100 mg/dL (n = 8), D0 20.212): 20.95 μU/mL
Fasting insulin ([1]; FPG >100 mg/dL (n = 9), D0 31.3): 30.289 μU/mL
Fasting insulin ([1]; High A1c (n = 9), D0 30.411): 28.9 μU/mL
Fasting insulin ([1]; Low A1c (n = 8), D0 21.212): 22.512 μU/mL
decrease of fasting insulin ([1]; all 17 subjects, p=0.916, p=0.963): 0.7 μU/mL
decrease of median insulin area under the curve (AUC) ([1]; high A1c group, not statistically significant): 1663.5
decrease of fasting insulin ([1]; high A1c group, p=0.916, p=0.963): 0.84 μU/mL
decrease of fasting insulin ([1]; high fasting plasma glucose group, p=0.752, p=0.855): 2.97 μU/mL
increase of median insulin area under the curve (AUC) ([1]; low A1c group, not statistically significant): 3380.25
decrease of fasting insulin ([1]; remaining 16 subjects (subject #1 excluded), p=0.007, 0.009): 13.4%
average fasting insulin post-treatment ([1]; subject #1, outlier in the high A1c group, increased from 77.45 pre-treatment): 96.15 μU/mL
median decrease of fasting insulin ([1]; subset of 8 subjects (#2-4, 8-11, and 13)): 42.5%
decrease of mean fasting insulin ([1]; subset of 8 subjects (#2-4, 8-11, and 13), p=0.004, p=0.008): 37.8%
average decrease of fasting glucose ([2]; 8 subjects with a fasting glucose≥100 mg/dL, Day 21 vs Day 0, p=0.033, p=0.06): 6.06 mg/dL
AUC Glucose ([2]; All (n = 17), D0 25826): 25356
AUC Glucose ([2]; FPG <100 mg/dL (n = 8), D0 23530): 24475
AUC Glucose ([2]; FPG >100 mg/dL (n = 9), D0 27867): 26138
AUC Glucose ([2]; High A1c (n = 9), D0 27313): 25889
AUC Glucose ([2]; Low A1c (n = 8), D0 24153): 24756
Fasting plasma glucose ([2]; All (n = 17), D0 101.662): 99.732 mg/dL
Fasting plasma glucose ([2]; FPG <100 mg/dL (n = 8), D0 92.769): 97.25 mg/dL
Fasting plasma glucose ([2]; FPG >100 mg/dL (n = 9), D0 109.567, P < 0.01): 101.939** mg/dL
Fasting plasma glucose ([2]; High A1c (n = 9), D0 105.156): 100.261 mg/dL
Fasting plasma glucose ([2]; Low A1c (n = 8), D0 97.731): 99.138 mg/dL
Glucose 180 min ([2]; All (n = 17), D0 100.315): 91.579 mg/dL
Glucose 180 min ([2]; FPG <100 mg/dL (n = 8), D0 89.919): 86.494 mg/dL
Glucose 180 min ([2]; FPG >100 mg/dL (n = 9), D0 109.556): 96.1 mg/dL
Glucose 180 min ([2]; High A1c (n = 9), D0 108.978): 95.128 mg/dL
Glucose 180 min ([2]; Low A1c (n = 8), D0 90.569): 87.588 mg/dL
increase of post-treatment fasting glucose ([2]; entire cohort of 17 subjects, Day 21 vs Day 0, insignificant (p=0.962; p=0.96)): 0.11 mg/dL
average decrease of glucose at 180 minutes ([2]; entire cohort, not significant (p=0.136; 0.057)): 9.14%
decrease in 180 min plasma glucose after treatment ([2]; remaining 16 subjects (subject #1 excluded), p=0.002, 0.003): 13.5%
increase of glucose at 180 minutes ([2]; single outlier (subject #1)): 58.6%
fasting glucose level post-treatment ([2]; subject #1 (A1c 6.2%), decreased from 123.8): 116.3 mg/dL
180 min glucose level post-treatment ([2]; subject #1 (A1c 6.2%), decreased from 200.0): 184.5 mg/dL
180 min glucose level post-treatment ([2]; subject #2 (A1c 6.1%), from 88.3): 69 mg/dL
180 min glucose level post-treatment ([2]; subject #3 (A1c 6.0%), from 146): 119 mg/dL
average decrease of fasting glucose ([2]; subjects with HbA1c≥5.6%, Day 21 vs Day 0, p=0.128, p=0.22): 4.25 mg/dL
median decrease of glucose levels at 180 minutes ([2]; subset of 12 subjects, Day 21): 25.3%
average decrease of glucose levels at 180 minutes ([2]; subset of 12 subjects, Day 21, p<0.001): 21.7%
improvement in total cholesterol and TC/HDL ratio, buccal relative to gastric delivery ([3]; FIG. 17, T test): statistically significant greater improvement
HDL levels ([3]; buccal delivery, 0.5, 1, 2, 4 mg/kg vs 0 mg/kg, FIG. 8): increased at all DEA doses tested
Triglycerides [3, 5]: lowered
calculated LDL [3, 5]: lowered
total cholesterol [3, 5]: lowered
HDL levels ([3]; buccal delivery, all dosages vs 0 mg/kg, FIG. 15): elevated (i.e., improved)
TC/HDL ratio ([3]; buccal delivery, all tested amounts 0.5-4 mg/kg vs no DEA, FIG. 9, lowered the most with 0.5 mg/kg): lowered (i.e., improved) TC/HDL ratio
TC, triglyceride, and Calc LDL levels and TC/HDL ratio ([3]; buccal delivery, FIG. 15, more pronounced at 1 mg/kg): lowered (i.e., improved)
HDL levels ([3]; gastric delivery, all dosages vs 0 mg/kg, FIG. 15): elevated (i.e., improved)
TC, triglyceride, and Calc LDL levels and TC/HDL ratio ([3]; gastric delivery, FIG. 15, more pronounced at 0.25 mg/kg): lowered (i.e., improved)
tolerability of daily oral DEA ([4]; 17 subjects, 21 daily oral doses of 1 mg/kg, 1 mg/kg): well tolerated by all study subjects
Hypoglycemia ([4]; 21-day study): Neither metformin nor DEA administration as presented herein induced hypoglycemia; also recorded: no effect
Side effects ([4]; 21-day study): mild transient diarrhea (1/17 subjects)
adverse effects ([4]; first week of treatment, no other adverse effects reported): only one subject experienced transient mild diarrhea

From US12605354B2, “Azelaic acid esters in the treatment or prevention of dyslipidemia and associated conditions” (NEW FRONTIER LABS, LLC, priority 2020, dated 2026)
